By AUC is commonly meant the area under the concentration-time curve, a measure of exposure. A higher AUC goes with more exposure. Broadly, the Cmax is the maximum level reached in the sampled fluid or tissue. By inhibition is commonly meant the change of the read-out against control, counted positive when it falls.

One compound from patent publication EP2325187A1, “THE HYDROSULFATE OF PRASUGREL, ITS PHARMACEUTICAL COMBINATION AND USES THEREOF” (priority 2008, dated 2010) can be followed below.

For data set [1] the following is noted: dog, in vivo, 10 mg/kg. From the text:
Six healthy male beagle dogs of around 7-month-old, without statistical difference in their weights, are used in the experiments and fed normally for 2 weeks without receiving any drug. Six beagle dogs are divided randomly into prasugrel bisulfate group and prasugrel hydrochloride group, with 3 dogs in each group. Following the process disclosed in Experimental Example 1 of Chinese Patent Publication No. CN1214031A, the pharmacokinetic parameters of S-methylate in the plasma of the dogs in each group after administration are determined (the administration dosage for both groups is 10mg/kg).

Data set [2] has as its system platelet aggregation induced by collagen. Nature of the data set: Inhibition of platelet aggregation induced by collagen (platelet-rich plasma taken from dosed rats). It is filed as in vivo. The method, then: (§1) […] male SD rats weighted 200-300g are provided by the Experimental Animal Center of Lunan Pharmaceutical Group corporation and are divided randomly into 5 groups with 10 rats in each group. The animals are acclimatized for one week before experiment. The animals in the excipient group (equivalent volume of physiological saline), prasugrel maleate group (10mg/kg), prasugrel bisulfate group (10mg/kg) are administered by gastric gavage once each day for 7 days.
(§2) Two days after administered as above, the animals are starved over night. One hour after administered on the second day, the animals are anaesthetized by intraperitoneal injection of urethane, and then celiotomized to separate the abdominal aorta. A polyethylene cannula is inserted to collect 5 ml of blood into a test tube (in the tube is placed beforehand 0.5 ml of 3.8% sodium citrate solution, i.e. the ratio of the anticoagulant solution and blood is 1:9). The whole blood is centrifuged at 1000 rpm for 4 min. 1 ml of platelet-rich plasma (PRP) is taken. The remaining liquid is centrifuged at 3000 rpm for further 8 min. 1 ml of platelet-poor plasma (PPP) is taken. The two samples are placed separately in two plastic test tubes under a constant temperature of (37±0.1)°C. Using ADP (30 ul/tube) and collagen (30 ul/tube) as aggregation inducers, the maximum aggregation intensity is determined and the inhibition rate is calculated. Rate of inhibiting aggregation = (aggregation intensity for excipient group-aggregation intensity for experimental group)/aggregation intensity for excipient group × 100% [formula]

The subject of data set [3] is platelet aggregation induced by ADP. Kind of data set: Inhibition of platelet aggregation induced by ADP (platelet-rich plasma taken from dosed rats). It is filed as in vivo. How it is done: as §1, §2
The test system of the next data set is rats. Kind of data set: Determination of the rate of hemorrhage (hyperemia, oedema, hemorrhage in the gastric mucosa). It is filed as in vivo. How it is done: as §1
After the rate of inhibiting aggregation is determined, the rats are sacrificed and dissected. The appearances of hyperemiam, oedema, hemorrhage in the gastric mucosa are examined with the aid of a magnifier, and the rats developed with hyperemiam, oedema, hemorrhage in the gastric mucosa are recorded into corresponding test groups as cases of hemorrhage.

[4] abbreviates: rats, 10mg/kg by gastric gavage, n=10 per group, gastric mucosa.

Each structure is given as a SMILES string.

Turning to `CC(=O)Oc1cc2c(s1)CCN(C(C(=O)C1CC1)c1ccccc1F)C2` (stereo not drawn) [Prasugrel Bisulfate, 2-acetyloxy-5-(α-cycloproylcarbonyl-2-fluorobenzyl)-4,5,6,7-tetrahydrothieno[3,2-C]pyridine bisulfate], in data set [1], the AUC amounted to 82.3 ± 7.6 µg·min/mL, the Cmax is 1210 ± 130 ng/mL and the bioavailability result is “better bioavailability than prasugrel hydrochloride”. Further, the “Collagen Aggregation Intensity (%)” value in data set [2] (10mg/kg by gastric gavage once each day, inducer collagen 30 ul/tube, maximum aggregation intensity) is reported as 0.346±0.083 %. Besides, the “inhibition to platelet aggregation induced by collagen” value in data set [2] (10mg/kg, result in words) is “very significant inhibition”. Further, in data set [2] (Rattus norvegicus, Platelet, po, 10mg/kg by gastric gavage once each day, inducer collagen 30 ul/tube, relative to excipient group, read-out: Collagen Inhibition Rate (%)), the inhibition at 10 mg/kg turned out to be 54.3 ± 13.5%. For the same compound, the “ADP Aggregation Intensity (%)” value in data set [3] (10mg/kg by gastric gavage once each day, inducer ADP 30 ul/tube, maximum aggregation intensity) came to 0.336±0.075 %. For the same compound, the “inhibition to platelet aggregation induced by ADP” value in data set [3] (10mg/kg, result in words) is reported as “very significant inhibition”. In addition, in data set [3] (Rattus norvegicus, Platelet, po, 10mg/kg by gastric gavage once each day, inducer ADP 30 ul/tube, relative to excipient group, read-out: ADP Inhibition Rate (%)), the inhibition at 10 mg/kg is 48.5 ± 10.6%. Moreover, the rate of hemorrhage result in the data set on rats (rat, in vivo) is “significantly lower than that in the prasugrel maleate group”. For the same compound, in the data set with rats (setting [4]), the “Cases of Hemorrhage” value turned out to be 1 and the “Rate of Hemorrhage (%)” value is 10%.
